This passage reports 3 h FOB score results from the OligoGym collection.

HELM strings list units from the 5' end as sugar, base in round brackets, then linkage (d deoxyribose, r ribose, m 2'-O-methyl, p phosphodiester). Strings are as the collection lists them; they lack the last nucleoside at the 3' end of the tested compound. [moe] = 2'-O-(2-methoxyethyl) (MOE); [sp] = phosphorothioate linkage; [m5C] = 5-methylcytosine

This series deals with ATXN3. In words: mouse, dose not given. As to conditions: ASO.
Take “RNA1{[moe](T)[sp].[moe](G)p.[moe]([m5C])p.[moe](T)p.[moe]([m5C])p.[moe](A)p.d(T)[sp].d(T)[sp].d(T)[sp].d(A)[sp].d(T)[sp].d(T)[sp].d([m5C])[sp].d(T)[sp].d([m5C])[sp].d(A)[sp].[moe](A)p.[moe](G)[sp].[moe](T)}$$$$ (last 3' nucleoside missing)”: the 3 h FOB score amounted to 0 score 0-7.

Substance “RNA1{[moe](T)[sp].[moe](G)p.[moe]([m5C])p.[moe](T)p.[moe]([m5C])p.d(A)[sp].d(T)[sp].d(T)[sp].d(T)[sp].d(A)[sp].d(T)[sp].d(T)[sp].d([m5C])[sp].d(T)[sp].d([m5C])[sp].[moe](A)p.[moe](A)p.[moe](G)[sp].[moe](T)}$$$$ (last 3' nucleoside missing)” had a 3 h FOB score of 1 score 0-7.

For “RNA1{[moe](T)[sp].[moe](T)p.[moe](T)p.[moe]([m5C])p.[moe](A)p.d(T)[sp].d(G)[sp].d(T)[sp].d(T)[sp].d([m5C])[sp].d([m5C])[sp].d(A)[sp].d(G)[sp].d(A)[sp].d(T)[sp].[moe]([m5C])p.[moe](A)p.[moe]([m5C])[sp].[moe]([m5C])}$$$$ (last 3' nucleoside missing)”, the 3 h FOB score worked out at 1 score 0-7.

The substance “RNA1{[moe](T)[sp].[moe]([m5C])p.[moe](A)[sp].[moe]([m5C])[sp].[moe](A)[sp].d(A)[sp].d(T)[sp].d(G)[sp].d(A)[sp].d([m5C])[sp].d([m5C])[sp].d([m5C])[sp].d(T)[sp].d(T)[sp].d(T)[sp].[moe](T)[sp].[moe]([m5C])p.[moe](T)[sp].[moe](T)}$$$$ (last 3' nucleoside missing)” gave a 3 h FOB score of 1.25 score 0-7.

For the substance “RNA1{[moe]([m5C])[sp].[moe](A)p.[moe](A)p.[moe](T)p.[moe](A)[sp].d(T)[sp].d(T)[sp].d(T)[sp].d(A)[sp].d(T)[sp].d(A)[sp].d(G)[sp].d(G)[sp].d(T)[sp].d(G)[sp].[moe]([m5C])p.[moe](T)p.[moe](G)[sp].[moe]([m5C])}$$$$ (last 3' nucleoside missing)”, the 3 h FOB score worked out at 4.5 score 0-7.

“RNA1{[moe]([m5C])[sp].[moe](A)p.[moe](A)p.[moe](T)p.[moe](A)p.d(T)[sp].d(T)[sp].d(T)[sp].d(A)[sp].d(T)[sp].d(A)[sp].d(G)[sp].d(G)[sp].d(T)[sp].d(G)[sp].[moe]([m5C])p.[moe](T)p.[moe](G)[sp].[moe]([m5C])}$$$$ (last 3' nucleoside missing)” returned a 3 h FOB score of 4 score 0-7.

“RNA1{[moe]([m5C])[sp].[moe](A)p.[moe](G)p.[moe]([m5C])p.[moe](A)p.[moe]([m5C])p.d([m5C])[sp].d(A)[sp].d(T)[sp].d(A)[sp].d(T)[sp].d(A)[sp].d(T)[sp].d(A)[sp].d(T)[sp].d([m5C])[sp].[moe](T)p.[moe]([m5C])[sp].[moe](A)}$$$$ (last 3' nucleoside missing)” gave a 3 h FOB score of 0.625 score 0-7.

As for “RNA1{[moe]([m5C])[sp].[moe](A)p.[moe]([m5C])p.[moe](A)p.[moe]([m5C])[sp].d(T)[sp].d(T)[sp].d(T)[sp].d([m5C])[sp].d([m5C])[sp].d(T)[sp].d([m5C])[sp].d([m5C])[sp].d(T)[sp].d([m5C])[sp].[moe](A)p.[moe](A)p.[moe](T)[sp].[moe]([m5C])}$$$$ (last 3' nucleoside missing)”, the 3 h FOB score was determined as 0 score 0-7.

For “RNA1{[moe]([m5C])[sp].[moe](A)p.[moe]([m5C])p.[moe]([m5C])p.[moe](A)[sp].d(T)[sp].d([m5C])[sp].d(T)[sp].d(T)[sp].d(T)[sp].d(G)[sp].d(A)[sp].d([m5C])[sp].d(A)[sp].d(A)[sp].[moe](G)p.[moe]([m5C])p.[moe](T)[sp].[moe](A)}$$$$ (last 3' nucleoside missing)”, the 3 h FOB score stood at 1.25 score 0-7.

On to “RNA1{[moe]([m5C])[sp].[moe](T)p.[moe](G)p.[moe](G)p.[moe](T)[sp].d([m5C])[sp].d(A)[sp].d(G)[sp].d(T)[sp].d(T)[sp].d(T)[sp].d([m5C])[sp].d([m5C])[sp].d(T)[sp].d(A)[sp].[moe](A)p.[moe](T)p.[moe](T)[sp].[moe](T)}$$$$ (last 3' nucleoside missing)”, for which the 3 h FOB score was found to be 0 score 0-7.

The substance “RNA1{[moe]([m5C])[sp].[moe](T)p.[moe](G)p.[moe](T)p.[moe](A)[sp].d([m5C])[sp].d(A)[sp].d([m5C])[sp].d(T)[sp].d(T)[sp].d(T)[sp].d(T)[sp].d(A)[sp].d([m5C])[sp].d(A)[sp].[moe](T)p.[moe](T)p.[moe]([m5C])[sp].[moe]([m5C])}$$$$ (last 3' nucleoside missing)” had a 3 h FOB score of 1 score 0-7.

Regarding “RNA1{[moe]([m5C])[sp].[moe](T)p.[moe](G)p.[moe]([m5C])p.[moe](A)[sp].d([m5C])[sp].d(A)[sp].d([m5C])[sp].d(T)[sp].d(T)[sp].d(T)[sp].d([m5C])[sp].d([m5C])[sp].d(T)[sp].d([m5C])[sp].[moe]([m5C])p.[moe](T)p.[moe]([m5C])[sp].[moe](A)}$$$$ (last 3' nucleoside missing)”, the 3 h FOB score was 0 score 0-7.

On to “RNA1{[moe]([m5C])[sp].[moe]([m5C])p.[moe](A)p.[moe](A)p.[moe](T)[sp].d(A)[sp].d(T)[sp].d(T)[sp].d(T)[sp].d(A)[sp].d(T)[sp].d(A)[sp].d(G)[sp].d(G)[sp].d(T)[sp].[moe](G)p.[moe]([m5C])p.[moe](T)[sp].[moe](G)}$$$$ (last 3' nucleoside missing)”, for which the 3 h FOB score came to 3.5 score 0-7.

For the substance “RNA1{[moe]([m5C])[sp].[moe]([m5C])p.[moe](A)p.[moe](A)p.[moe](T)p.d(A)[sp].d(T)[sp].d(T)[sp].d(T)[sp].d(A)[sp].d(T)[sp].d(A)[sp].d(G)[sp].d(G)[sp].d(T)[sp].[moe](G)p.[moe]([m5C])p.[moe](T)[sp].[moe](G)}$$$$ (last 3' nucleoside missing)”, the 3 h FOB score is 1.75 score 0-7.

As to “RNA1{[moe]([m5C])[sp].[moe]([m5C])p.[moe]([m5C])p.[moe](A)p.[moe](A)[sp].d(T)[sp].d(A)[sp].d(A)[sp].d(T)[sp].d([m5C])[sp].d(T)[sp].d(G)[sp].d(A)[sp].d([m5C])[sp].d(A)[sp].[moe](T)p.[moe]([m5C])p.[moe]([m5C])[sp].[moe](T)}$$$$ (last 3' nucleoside missing)”, the 3 h FOB score is 1.5 score 0-7.
